Patent publication US4347319A, “Microbiological epoxidation process” (priority 1980, dated 1982)

Key:
[1] = system: methane-grown methylotrophic microorganisms; experiment: Epoxidation by methane-grown cells of the strains of the invention; assay type: cell-based
Protocol: The pH of the nutrient medium was adjusted to 7.0 by the addition of acid or base and 50 ml samples of the nutrient medium were charged into a plurality of 300 ml shaker flasks. The shaker flasks were inoculated with an inoculating loop of cells from an agar plate containing homogeneous colonies of the microorganisms on the plate (the purity of the isolates was confirmed by microscopic examination. The isolates had been maintained on agar plates under an atmosphere of methane and air having a 1:1 v/v gas ratio which had been transferred evey two weeks. The gaseous phase of the inoculated flasks was then replaced with a gas mixture comprised of methane and air having a ratio of 1:1 on a v/v basis. The inoculated flasks were sealed air tight and were incubated on a rotary shaker of orbital radius 2.5 cm at 250 rpm and at 30° C. for two days until turbidity in the medium had developed.
The cells were harvested by centrifugation at 10,000×g. at 4° C. for 30 minutes. The cell pellet was washed twice with a 0.15 M phosphate buffer at a pH of 7.0 (containing 0.002 M MgCl2). […]
A 0.5 ml sample of each washed cell suspension (2 mg cells) was put into 10 ml vials at 4° C. which were sealed with a rubber cap. […] Samples of product (3 μl) were withdrawn periodically with a microsyringe and the products were analyzed by gas chromatography (ionization flame detector column). […]

[2] = biological target: T1, cell fractions of Methylosinus sp. (CRL-15, NRRL B-11,202) (Methylosinus trichosporium, UniProt Q50541+Q9KX50+Q9KX51); experiment: Oxidation by cell fractions P(40), P(80), S(80); assay type: biochemical; details: P(40) particulate fraction; alkene to epoxide, alkane to alcohol; 30° C.
T1 sequence (Q9KX50 40-431): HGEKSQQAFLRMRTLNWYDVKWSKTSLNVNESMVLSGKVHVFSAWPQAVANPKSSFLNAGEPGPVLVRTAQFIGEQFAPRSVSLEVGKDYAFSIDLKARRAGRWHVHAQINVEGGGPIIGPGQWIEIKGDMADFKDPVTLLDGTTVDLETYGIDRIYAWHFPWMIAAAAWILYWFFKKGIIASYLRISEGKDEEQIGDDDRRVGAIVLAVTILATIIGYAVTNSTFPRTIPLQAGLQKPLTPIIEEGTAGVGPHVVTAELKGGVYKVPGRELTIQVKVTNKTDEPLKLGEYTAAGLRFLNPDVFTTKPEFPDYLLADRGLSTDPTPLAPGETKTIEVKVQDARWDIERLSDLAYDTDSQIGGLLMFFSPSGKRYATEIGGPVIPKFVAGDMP
T1 sequence (Q50541 1-252): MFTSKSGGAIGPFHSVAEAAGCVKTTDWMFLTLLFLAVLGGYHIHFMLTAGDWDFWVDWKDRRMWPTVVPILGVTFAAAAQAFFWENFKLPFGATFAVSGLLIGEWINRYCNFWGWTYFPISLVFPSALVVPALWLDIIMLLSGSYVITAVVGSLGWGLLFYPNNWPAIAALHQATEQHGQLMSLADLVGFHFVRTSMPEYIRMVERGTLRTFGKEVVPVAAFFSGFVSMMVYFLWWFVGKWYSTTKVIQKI
T1 sequence (Q9KX51 1-256): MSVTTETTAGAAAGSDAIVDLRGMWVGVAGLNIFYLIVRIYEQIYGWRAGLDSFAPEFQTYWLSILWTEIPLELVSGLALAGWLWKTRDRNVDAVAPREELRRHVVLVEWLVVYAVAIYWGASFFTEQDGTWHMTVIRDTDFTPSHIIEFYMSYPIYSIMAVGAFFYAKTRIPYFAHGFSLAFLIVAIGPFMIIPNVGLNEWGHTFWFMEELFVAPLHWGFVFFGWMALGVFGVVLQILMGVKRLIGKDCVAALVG
Protocol: Cells were washed twice with 25 mM potassium phosphate buffer, pH 7.0 containing 5 mM MgCl2. Cells were suspended in the same buffer. The cell suspensions at 4° C. were disintegrated by a single passage through a French Pressure cell (15,000 lb./in.^2) and centrifuged at 5000×g. for 15 min. to remove unbroken bacteria. The supernatant solution (crude extract) was then centrifuged at 40,000×g. for 30 min., yielding particulate P(40) and soluble S(40) fractions. The S(40) fraction was subsequently centrifuged at 80,000×g. for 60 min., yielding particulate P(80) and soluble S(80) fractions. The particulate fractions [P(40) and P(80)] were suspended in 25 mM potassium phosphate buffer, pH 7.0, containing 5 mM MgCl2 and homogenized at 4° C.
The oxidation of methane and propylene by particulate [(P)40 and (P)80] fractions and soluble [S(80)] fraction was measured at 30° C. by estimating the production of methanol and propylene oxide, respectively. The reaction mixtures contained in […]: 150 mM potassium phosphate buffer, pH 7.0 containing 5 mM MgCl2 b, 0.6 ml; 10μ moles NADH, and cellular fraction.
Reaction mixtures were contained in 10 ml vials at 4° C. Vials were sealed with rubber caps. The gaseous phase in the vials was removed using vacuum and then was replaced with a gas mixture of methane or propylene and oxygen at a 1:1, v/v ratio. Oxidation of other gaseous n-alkanes and n-alkanes was examined as described above. For liquid substrates, 10 μl of substrate was used directly.
The products of epoxidation of n-alkenes and hydroxylation of n-alkanes were assayed by flame ionization gas chromatography using a stainless steel column (12'×1/8") packed with 10% Carbowax 20 M on 80/100 Chromosorb W and Porapak Q column. The column temperature was maintained isothermally at 120° C. The carrier gas flow rate was 30 ml/min. of helium. The various products were identified by retention time comparisons and co-chromatography with authentic standards.
Specific activities were expressed as μ moles of products formed per hour per mg. protein. Concentrations of protein in various fractions were determined by the method of Lowry et al., J. Biol. Chem., 193: 265-275 (1951).

SMILES: C=CCCC [1-Pentene]
- epoxide product formation [1]: did not produce any detectable epoxide product
- Rate of Product Formation [2]: 0 μ moles/hr/mg of protein
